The values below come from publication PMC5603603, “Linoleic and palmitoleic acid block streptokinase-mediated plasminogen activation and reduce severity of invasive group A streptococcal infection” (Scientific Reports, 2017).

Assay [1] concerns the target T1, cluster 2a type streptokinase (Streptococcus pyogenes, UniProt A0A288R465). Put plainly: biochemical. Format: biochemical, group A streptococcal strain A614. As to conditions: for IC50: supernatant-based, cluster 2a.
The target of assay [2] is T1, cluster 2a type streptokinase. On the set-up: species or system group A streptococcal strain A614. The conditions noted are these: cell-based, cluster 2a. The method, then: The pellet from a mid-log phase culture of the strain A614 (cluster 2a type) or A314 (cluster 2b type) was washed twice with PBS and bacteria were adjusted to an OD600 of 1.0 in HEPES-buffer (10 mM HEPES, 150 mM NaCl, 0.01% Tween 20, pH 7.4). 90 µl of bacterial cells, plasminogen (final concentration 6.7 µg/ml per well) and fibrinogen (final concentration 1 µM per well) were pre-mixed. Then inhibitory compounds (LA, PA, oleic, myristic, stearic, palmitic, arachidonic, arachidic, linolenic acid, TXA or EACA) were added. Stocks of LA and PA were prepared in methanol and then diluted in PBS. Stocks of arachidic, oleic, arachidonic, myristic, palmitic, stearic and linolenic acid were prepared in 60% DMSO/PBS and then diluted in PBS. The untreated control received the same amount of PBS as in case of TXA and EACA as control or the same amount of methanol diluted in PBS as in case of LA and PA, respectively, or the same amount of DMSO diluted in PBS as in case of the other commercially available fatty acids. Then 50 µl of the respective supernatant (supernatant from the strain A614 if cells from A614 were used, supernatant from the strain A314 were used in case of cells from the GAS strain A314) and 3.75 µl 10 mM S-2251 (Chromogenix) were added. The assay was incubated at 37 °C and measured at the beginning of the reaction and then every hour at 405 nm after 3 sec of shaking on a Tecan Sunrise ELISAReader using Magellan software. Each experiment was repeated three times. IC50 values were calculated using Microsoft® Excel software.

In assay [3] the target is cluster 1 type streptokinase (Streptococcus pyogenes, UniProt P10520). In kind it is biochemical, group A streptococcal strain A328. The conditions noted are these: supernatant-based, cluster 1; for effect on plasminogen activation: concentrations up to 100 µg/ml (around 320–437 µM). The method, then:
An overnight culture of the strain A328 (cluster 1 type) or A614 (cluster 2a type) was diluted 1:10 in pre-warmed THY medium and grown to an OD600 of around 0.5 at 37 °C. […] The pellet was resuspended in Tris-HCl buffer (50 mM Tris pH 7.5). Then inhibitory compounds (LA, PA, oleic, myristic, stearic, palmitic, arachidonic, arachidic, linolenic acid, TXA or EACA) were added. Stocks of TXA and EACA were prepared in PBS. Stocks of LA and PA were prepared in methanol and then diluted in PBS. Stocks of arachidic, oleic, arachidonic, myristic, palmitic, stearic and linolenic acid were prepared in 60% DMSO/PBS and then diluted in PBS. The untreated control received the same amount of PBS as in case of TXA and EACA as control or the same amount of methanol diluted in PBS as in case of LA and PA, respectively, or the same amount of DMSO diluted in PBS as in case of the other commercially available fatty acids. […] The assay was run at 37 °C. The absorption was measured at the beginning of the reaction and then every hour at 405 nm after 3 sec of shaking on a Tecan Sunrise ELISAReader using Magellan software. Each experiment was repeated three times. IC50 values were calculated using Microsoft® Excel software.

In assay [4] the target is cluster 2b type streptokinase (Streptococcus pyogenes, UniProt P10520). On the set-up: species or system group A streptococcal strain A314. As to conditions: cell-based, cluster 2b; for effect on plasminogen activation: concentrations up to 100 µg/ml (around 320–437 µM). As for the experimental part: Then inhibitory compounds (LA, PA, oleic, myristic, stearic, palmitic, arachidonic, arachidic, linolenic acid, TXA or EACA) were added. Stocks of LA and PA were prepared in methanol and then diluted in PBS. Stocks of arachidic, oleic, arachidonic, myristic, palmitic, stearic and linolenic acid were prepared in 60% DMSO/PBS and then diluted in PBS. The untreated control received the same amount of PBS as in case of TXA and EACA as control or the same amount of methanol diluted in PBS as in case of LA and PA, respectively, or the same amount of DMSO diluted in PBS as in case of the other commercially available fatty acids. […] The assay was incubated at 37 °C and measured at the beginning of the reaction and then every hour at 405 nm after 3 sec of shaking on a Tecan Sunrise ELISAReader using Magellan software. Each experiment was repeated three times. IC50 values were calculated using Microsoft® Excel software.

The mark [5] stands for this setting: read-out: inhibition of plasminogen activation.

Where two headings read alike, the source gives them in different places.

Chain of cluster 1 type streptokinase (P00747 20-810): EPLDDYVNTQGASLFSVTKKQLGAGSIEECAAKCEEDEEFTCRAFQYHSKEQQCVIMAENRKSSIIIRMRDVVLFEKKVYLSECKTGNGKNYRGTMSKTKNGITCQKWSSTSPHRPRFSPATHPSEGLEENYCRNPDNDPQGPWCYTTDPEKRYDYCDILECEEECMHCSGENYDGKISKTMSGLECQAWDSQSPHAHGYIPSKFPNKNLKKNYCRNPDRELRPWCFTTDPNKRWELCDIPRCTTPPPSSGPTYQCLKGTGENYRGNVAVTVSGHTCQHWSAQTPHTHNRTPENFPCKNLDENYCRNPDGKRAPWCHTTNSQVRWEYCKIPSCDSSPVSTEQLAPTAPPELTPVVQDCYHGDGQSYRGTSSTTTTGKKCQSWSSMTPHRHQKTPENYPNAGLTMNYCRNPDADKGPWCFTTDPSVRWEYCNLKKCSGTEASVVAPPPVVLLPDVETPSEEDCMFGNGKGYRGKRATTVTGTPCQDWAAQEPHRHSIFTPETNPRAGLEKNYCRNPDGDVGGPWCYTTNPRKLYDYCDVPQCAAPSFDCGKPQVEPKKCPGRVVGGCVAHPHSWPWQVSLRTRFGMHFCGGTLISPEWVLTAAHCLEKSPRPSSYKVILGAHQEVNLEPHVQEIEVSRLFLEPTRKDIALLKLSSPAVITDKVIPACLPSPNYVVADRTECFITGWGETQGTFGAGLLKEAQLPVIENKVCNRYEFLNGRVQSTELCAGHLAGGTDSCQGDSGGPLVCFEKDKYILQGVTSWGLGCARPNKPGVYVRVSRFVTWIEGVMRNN
Chain of cluster 1 type streptokinase (P10520 27-440): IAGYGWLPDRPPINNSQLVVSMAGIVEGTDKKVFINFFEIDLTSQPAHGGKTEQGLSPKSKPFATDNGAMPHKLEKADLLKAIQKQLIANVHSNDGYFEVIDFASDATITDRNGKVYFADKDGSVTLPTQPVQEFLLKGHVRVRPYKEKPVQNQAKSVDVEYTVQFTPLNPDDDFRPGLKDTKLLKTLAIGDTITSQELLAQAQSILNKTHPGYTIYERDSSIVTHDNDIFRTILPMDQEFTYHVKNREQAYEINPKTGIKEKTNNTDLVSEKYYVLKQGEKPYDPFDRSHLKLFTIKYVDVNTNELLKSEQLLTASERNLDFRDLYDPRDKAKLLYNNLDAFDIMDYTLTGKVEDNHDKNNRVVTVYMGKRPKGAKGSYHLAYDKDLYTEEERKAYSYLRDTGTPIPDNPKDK

Regarding `NCCCCCC(=O)O` [EACA, ε-amino caproic acid, reference compound], the IC50 (as a rule, the midpoint of a concentration-inhibition curve) was more than 100 mM in assay [1], more than 100 mM in assay [2], more than 100 mM in assay [3] and 100 mM in assay [4].
As to `NC[C@H]1CC[C@H](C(=O)O)CC1` [TXA, tranexamic acid, reference compound], the figures for the concentration for half-maximal inhibition (IC50) in assay [1], in assay [2] and in assay [3] were more than 100 mM, 100 mM and more than 100 mM, respectively.
With `CCCCCCCCCCCCCC(=O)O` [myristic acid, reference compound], the “effect on plasminogen activation” value in assay [3] and in assay [4] was “no effect” in each case.
For the compound `CC/C=C\C/C=C\C/C=C\CCCCCCCC(=O)O` [linolenic acid, reference compound], in assay [1] (setting [5]), the inhibition (in general, how much of the control response was suppressed) at 359 µM is 30%. Also, the “effect on plasminogen activation” value in assay [4] is “no effect”.
Turning to `CCCCCCCCCCCCCCCC(=O)O` [palmitic acid], the “effect on plasminogen activation” value in assay [4] is recorded as “unspecific marginal inhibitory effects”.
The same measure, in the same setting: next, `CCCCCCCCCCCCCCCCCC(=O)O` [stearic acid]: “unspecific marginal inhibitory effects”.
With `CCCCCCCC/C=C\CCCCCCCC(=O)O` [oleic acid], the inhibition at 354 µM in assay [1] (setting [5]) is approximately 45%. Also, the “effect on plasminogen activation” value is “not active” in assay [2] (concentrations up to 100 µg/ml (around 320–437 µM)) and “no effect” in assay [4].
Consider `CCCCC/C=C\C/C=C\C/C=C\C/C=C\CCCC(=O)O` [arachidonic acid, reference compound], for which the “effect on plasminogen activation” value in assay [3] and in assay [4] was “no effect” in each case.
